Source: US20170056496A1 (Sanofi, priority 2008, published 2017)
Read-outs that look alike come from different tables or passages of the source.

Legend:
[1] = for Comments: toxicity statement: toxicity = ≧20% body weight loss or 10% drug death
murine CD38 = biological target: T1, murine CD38 (Mus musculus, UniProt P56528); assay: Cross-reactivity of the antibody with murine CD38; type: binding
T1 sequence (P56528 1-304): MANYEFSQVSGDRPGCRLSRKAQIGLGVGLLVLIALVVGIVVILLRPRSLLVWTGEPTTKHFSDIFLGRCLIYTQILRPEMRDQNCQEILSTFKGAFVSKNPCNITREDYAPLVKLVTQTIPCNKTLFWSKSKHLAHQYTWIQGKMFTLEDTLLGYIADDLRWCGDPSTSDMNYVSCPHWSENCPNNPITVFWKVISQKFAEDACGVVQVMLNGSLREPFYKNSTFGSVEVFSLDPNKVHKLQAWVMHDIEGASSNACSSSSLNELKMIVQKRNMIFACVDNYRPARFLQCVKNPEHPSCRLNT

[2] = CPA alone, 286.1 mg/kg/inj (total 572.2), listed as CPA, 286.1 mg/kg

| Molecule | deaths (deaths out of mice) [1, 2] | Comments: toxicity statement ([1]; CPA alone, 286.1 mg/kg/inj (total 572.2), 286.1 mg/kg) | Comments: toxicity statement [1, 2] | deaths, percent of mice ([1]; CPA alone, 286.1 mg/kg/injection) [%] | % BWC at nadir (day) ([1]; CPA alone, IV day 11, 15, 68.2 mg/kg/inj (total 136.4), nadir day 18) | % BWC at nadir (day) ([1]; CPA alone, IV day 11, 15, 110.0 mg/kg/inj (total 220.0), nadir day 17) | % BWC at nadir (day) ([1]; CPA alone, IV day 11, 15, 286.1 mg/kg/inj (total 572.2), nadir day 20) | Comments: toxicity statement (HNTD = highest nontoxic dose) ([1]; CPA alone, […] (total 354.8)) | % BWC at nadir (day) ([1]; mouse, in vivo, iv, 40 mg/kg) | cross-reactivity with murine CD38 (murine CD38) |
| --- | --- | --- | --- | --- | --- | --- | --- | --- | --- | --- |
| O=P1(N(CCCl)CCCl)NCCCO1 (stereo not shown) [cyclophosphamide] | ⅗ | Toxicity | Toxic | 60 | −3.8 (18) % | −5.2 (17) % | −21.2 (20) % | HNTD | – | – |
| hu38SB19: humanized anti-CD38 monoclonal antibody 38SB19; VH SEQ ID NO: 66, VL chosen from SEQ ID NOS: 62 and 64 | – | – | – | – | – | – | – | – | +5.4 (19) % | lack of cross-reactivity |
